{"source": "patent US20130143739A1", "about": "“HERBICIDAL COMPOSITION CONTAINING 4-amino-3-chloro-6-(4-chloro-2-fluoro-3-methoxyphenyl) pyridine-2-carboxylic acid or derivative thereof AND FLUROXYPYR or derivatives thereof” (DOW AGROSCIENCES LLC, priority 2011, published 2013)", "type_in_all_cases": "in vivo", "key": {"[1]": {"test_system": "MATCH (Matricaria chamomilla)", "assay": "Postemergence field trial, weed control in cereal crops", "method": "(§1) Evaluation of Postemergence Herbicidal Activity of Mixtures in Cereal crops and Range and Pasture.\n(§2) Field trials were conducted in cereal crops (winter wheat (TRZAW), spring wheat (TRZAS) and spring barley (HORVU) in Canada, France, Germany, Spain, Denmark, United Kingdom and Belgium, and pasture trials were conducted in Colombia using standard herbicide small plot research methodology. Plot size was typical for small plot research, varying from 1.4 to 2 meters (m) wide by 3 to 10 m long. There were 2-4 replicates per treatment. The soil type ranged from coarse, to medium or heavy in terms of soil texture. Cereal crops were planted, grown and maintained as commercial production fields. Perennial pastures were natural plant and weed infestations as per normal local cultural practices. The cereal and pasture crops were grown using normal cultural practices for fertilization and maintenance to ensure good growth of the crop/pastures and the weeds.\n(§3) Treatments were applied by backpack or bicycle sprayers using either compressed air, nitrogen, or carbon dioxide (CO2), at spray pressures from 200 to 300 Kpa. Spray tips were typically Flat Fan Teejet nozzles, such as TJ8003. Spray volumes varied from 200 to 400 liters per hectare (L/ha). MEOPA plant size at application varied from 70 to 80 centimeters (cm) tall active growth at flowering stage. All cereal weeds tested varied from 2 leaf to 8 leaf and often branched or tittered.\n(§4) For each treatment, the appropriate formulated product amount to treat the plot area, to achieve the desired application rate, based on unit area of application (hectare), was calculated, measured, and mixed in water prior to applying with the backpack or bicycle sprayer. Treatments were rated as compared to the untreated control plots. The commercial fluroxypyr formulations used were Starane® Ultra (333 gr ae/liter) or Starane® 2 (200 gr ae/liter). Compound I was formulated as a 20% weight acid equivalent wettable granule (WG) or as a 7.5 gr ae/liter EC of the corresponding methyl ester. All Compound (I) treatments were tank mixed with an adjuvant. Compound (I) treatments in the cereal trials contained the safener cloquintocet-mexyl.\n(§5) Colby's equation was used to determine the herbicidal effects expected from the mixtures (Colby, S. R. Calculation of the synergistic and antagonistic response of herbicide combinations. Weeds 1967, 15, 20-22.).\n(§6) The following equation was used to calculate the expected activity of mixtures containing two active ingredients, A and B:\n(§7) A=observed efficacy of active ingredient A at the same concentration as used in the mixture.\n(§8) B=observed efficacy of active ingredient B at the same concentration as used in the mixture."}, "[2]": {"test_system": "STEME (Stellaria media)", "assay": "Postemergence field trial, weed control in cereal crops", "method": "as §1, §2, §3, §4, §5, §6, §7, §8"}, "[3]": {"test_system": "CHEAL (Chenopodium album)", "assay": "Postemergence field trial, weed control in cereal crops", "settings": "14 DAA", "method": "as §1, §2, §3, §4, §5, §6, §7, §8"}, "[4]": {"test_system": "STAAN (Stachys annua)", "assay": "Postemergence field trial, weed control in cereal crops", "settings": "14 DAA", "method": "as §1, §2, §3, §4, §5, §6, §7, §8"}, "[5]": {"test_system": "CIRAR (Cirsium arvense)", "assay": "Postemergence field trial, weed control in cereal crops", "settings": "14 DAA", "method": "as §1, §2, §3, §4, §5, §6, §7, §8"}, "[6]": {"test_system": "AMARE (Amaranthus retroflexus)", "assay": "Postemergence field trial, weed control in cereal crops", "settings": "56 DAA", "method": "as §1, §2, §3, §4, §5, §6, §7, §8"}, "[7]": {"test_system": "VIOAR (Viola arvensis)", "assay": "Postemergence field trial, weed control in cereal crops", "settings": "14 DAA", "method": "as §1, §2, §3, §4, §5, §6, §7, §8"}, "[8]": {"test_system": "PAPRH (Papaver rhoeas)", "assay": "Postemergence field trial, weed control in cereal crops", "settings": "28 DAA", "method": "as §1, §2, §3, §4, §5, §6, §7, §8"}, "[9]": {"test_system": "VEROF (Veronica officinalis)", "assay": "Postemergence field trial, weed control in cereal crops", "settings": "28 DAA", "method": "as §1, §2, §3, §4, §5, §6, §7, §8"}, "[10]": {"test_system": "SINAR (Sinapis arvensis)", "assay": "Postemergence field trial, weed control in cereal crops", "settings": "58 DAA", "method": "as §1, §2, §3, §4, §5, §6, §7, §8"}, "[11]": {"test_system": "VERHE (Veronica hederifolia)", "assay": "Postemergence field trial, weed control in cereal crops", "settings": "49 DAA", "method": "as §1, §2, §3, §4, §5, §6, §7, §8"}, "[12]": {"test_system": "POLAV (Polygonum aviculare)", "assay": "Postemergence field trial, weed control in cereal crops", "settings": "13-27 DAA", "method": "as §1, §2, §3, §4, §5, §6, §7, §8"}, "[13]": {"test_system": "LAMPU (Lamium purpureum)", "assay": "Postemergence field trial, weed control in cereal crops", "settings": "28 DAA", "method": "as §1, §2, §3, §4, §5, §6, §7, §8"}, "[14]": {"test_system": "MEOPA (Melochia parviflora)", "assay": "Postemergence field trial, weed control in range and pasture", "settings": "for Obs, observed percent weed control: 14 DAA, Table 1; for % Visual Injury, Obs: 63 DAA", "method": "as §1, §2, §3, §4, §5, §6, §7, §8"}, "[15]": {"test_system": "CASOB (Cassia obtusifolia)", "assay": "Postemergence field trial, weed control in range and pasture", "settings": "29-42 DAA", "method": "as §1, §2, §3, §4, §5, §6, §7, §8"}, "[16]": {"settings": "fluroxypyr MHE 77 g ae/ha alone"}, "[17]": {"settings": "fluroxypyr MHE 150 g ae/ha alone"}, "[18]": {"settings": "fluroxypyr MHE 140 g ae/ha alone"}, "[19]": {"settings": "fluroxypyr MHE 120 g ae/ha alone"}}, "note": "Where “and” joins values, the source holds several entries; their conditions need not be identical. Equal values may be shown once.", "data": [{"smiles": "COc1c(Cl)ccc(-c2cc(N)c(Cl)c(C(=O)O)n2)c1F", "note": "[XDE-729 (TEA)]", "values": [{"measurement": "% Visual Injury, Obs", "setting": "[1]; 27 DAA, XDE-729 TEA 35 g ae/ha alone", "value": 8, "unit": "%"}, {"measurement": "% Visual Injury, Obs", "setting": "[2]; 28 DAA, XDE-729 TEA 35 g ae/ha alone", "value": 10, "unit": "%"}, {"measurement": "% Visual Injury, Obs", "setting": "[3]; XDE-729 TEA 8.8 g ae/ha alone", "value": 83, "unit": "%"}, {"measurement": "% Visual Injury, Obs", "setting": "[4]; XDE-729 TEA 8.8 g ae/ha alone", "value": 64, "unit": "%"}, {"measurement": "% Visual Injury, Obs", "setting": "[5]; XDE-729 TEA 8.8 g ae/ha alone", "value": 64, "unit": "%"}]}, {"smiles": "COC(=O)c1nc(-c2ccc(Cl)c(OC)c2F)cc(N)c1Cl", "note": "[XDE-729 (Methyl Ester), halauxifen-methyl]", "values": [{"measurement": "% Visual Injury, Obs", "setting": "[1]; 54 DAA, XDE-729 Me 6 g ae/ha alone", "value": 0, "unit": "%"}, {"measurement": "% Visual Injury, Obs", "setting": "[6]; XDE-729 Me 5 g ae/ha alone", "value": 50, "unit": "%"}, {"measurement": "% Visual Injury, Obs", "setting": "[2]; 30 DAA, XDE-729 Me 2 g ae/ha alone", "value": 58, "unit": "%"}, {"measurement": "% Visual Injury, Obs", "setting": "[2]; 76 DAA, XDE-729 Me 4.5 g ae/ha alone, Table 3", "value": 19, "unit": "%"}, {"measurement": "% Visual Injury, Obs", "setting": "[2]; 76 DAA, XDE-729 Me 4.5 g ae/ha alone, Table 5", "value": 22, "unit": "%"}, {"measurement": "% Visual Injury, Obs", "setting": "[2]; 76 DAA, XDE-729 Me 6 g ae/ha alone, Table 3", "value": 29, "unit": "%"}, {"measurement": "% Visual Injury, Obs", "setting": "[2]; 76 DAA, XDE-729 Me 6 g ae/ha alone, Table 5", "value": 38, "unit": "%"}, {"measurement": "% Visual Injury, Obs", "setting": "[7]; XDE-729 Me 6 g ae/ha alone", "value": 10, "unit": "%"}, {"measurement": "% Visual Injury, Obs", "setting": "[8]; XDE-729 Me 6 g ae/ha alone", "value": 54, "unit": "%"}, {"measurement": "% Visual Injury, Obs", "setting": "[9]; XDE-729 Me 6 g ae/ha alone", "value": 0, "unit": "%"}, {"measurement": "% Visual Injury, Obs", "setting": "[10]; XDE-729 Me 6 g ae/ha alone", "value": 0, "unit": "%"}, {"measurement": "% Visual Injury, Obs", "setting": "[11]; XDE-729 Me 6 g ae/ha alone", "value": 23, "unit": "%"}, {"measurement": "% Visual Injury, Obs", "setting": "[12]; XDE-729 Me 2 g ae/ha alone", "value": 0, "unit": "%"}, {"measurement": "% Visual Injury, Obs", "setting": "[12]; XDE-729 Me 5 g ae/ha alone", "value": 53, "unit": "%"}, {"measurement": "% Visual Injury, Obs", "setting": "[13]; XDE-729 Me 2 g ae/ha alone", "value": 73, "unit": "%"}, {"measurement": "Obs, observed percent weed control", "setting": "[14]; XDE-729 methyl ester 17.5 g ae/ha alone", "value": 48.5, "unit": "%"}, {"measurement": "Obs, observed percent weed control", "setting": "[14]; XDE-729 methyl ester 35 g ae/ha alone", "value": 63.1, "unit": "%"}, {"measurement": "% Visual Injury, Obs", "setting": "[14]; XDE-729 Me 18 g ae/ha alone", "value": 25, "unit": "%"}, {"measurement": "% Visual Injury, Obs", "setting": "[14]; XDE-729 Me 35 g ae/ha alone", "value": 42, "unit": "%"}, {"measurement": "% Visual Injury, Obs", "setting": "[15]; XDE-729 Me 18 g ae/ha alone", "value": 6, "unit": "%"}, {"measurement": "% Visual Injury, Obs", "setting": "[15]; XDE-729 Me 35 g ae/ha alone", "value": 16, "unit": "%"}]}, {"smiles": "CCCCCCC(C)OC(=O)COc1nc(F)c(Cl)c(N)c1Cl", "note": "(centres unmarked) [Fluroxypyr (MHE), Fluroxypyr Methylheptyl Ester, reference compound]", "values": [{"measurement": "% Visual Injury, Obs", "setting": "[1]; 27 DAA, fluroxypyr MHE 200 g ae/ha alone", "value": 47, "unit": "%"}, {"measurement": "% Visual Injury, Obs", "setting": "[1]; 54 DAA, fluroxypyr MHE 150 g ae/ha alone", "value": 0, "unit": "%"}, {"measurement": "% Visual Injury, Obs", "setting": "[6]; [16]", "value": 20, "unit": "%"}, {"measurement": "% Visual Injury, Obs", "setting": "[2]; 28 DAA, fluroxypyr MHE 200 g ae/ha alone", "value": 27, "unit": "%"}, {"measurement": "% Visual Injury, Obs", "setting": "[2]; 30 DAA, fluroxypyr MHE 80 g ae/ha alone", "value": 81, "unit": "%"}, {"measurement": "% Visual Injury, Obs", "setting": "[2]; 76 DAA, fluroxypyr MHE 110 g ae/ha alone, Table 5", "value": 67, "unit": "%"}, {"measurement": "% Visual Injury, Obs", "setting": "[2]; 76 DAA, fluroxypyr MHE 140 g ae/ha alone, Table 3", "value": 77, "unit": "%"}, {"measurement": "% Visual Injury, Obs", "setting": "[3]; [17]", "value": 10, "unit": "%"}, {"measurement": "% Visual Injury, Obs", "setting": "[7]; [18]", "value": 50, "unit": "%"}, {"measurement": "% Visual Injury, Obs", "setting": "[8]; [18]", "value": 5, "unit": "%"}, {"measurement": "% Visual Injury, Obs", "setting": "[9]; [18]", "value": 0, "unit": "%"}, {"measurement": "% Visual Injury, Obs", "setting": "[10]; [18]", "value": 13, "unit": "%"}, {"measurement": "% Visual Injury, Obs", "setting": "[11]; fluroxypyr MHE 110 g ae/ha alone", "value": 42, "unit": "%"}, {"measurement": "% Visual Injury, Obs", "setting": "[4]; [17]", "value": 30, "unit": "%"}, {"measurement": "% Visual Injury, Obs", "setting": "[5]; [17]", "value": 10, "unit": "%"}, {"measurement": "% Visual Injury, Obs", "setting": "[12]; [16]", "value": 25, "unit": "%"}, {"measurement": "% Visual Injury, Obs", "setting": "[12]; fluroxypyr MHE 80 g ae/ha alone", "value": 61, "unit": "%"}, {"measurement": "% Visual Injury, Obs", "setting": "[13]; fluroxypyr MHE 50 g ae/ha alone", "value": 4, "unit": "%"}, {"measurement": "Obs, observed percent weed control", "setting": "[14]; [19]", "value": 3.5, "unit": "%"}, {"measurement": "% Visual Injury, Obs", "setting": "[14]; [19]", "value": "3% and 8%"}, {"measurement": "% Visual Injury, Obs", "setting": "[15]; [19]", "value": 18, "unit": "%"}]}]}
